Experimental data from BindingDB's records for doi:10.1021/jm00055a005 (Scios Nova, 1993).

What was measured:
[1] = target: Sigma receptor (Cavia porcellus); experiment: Binding affinity against sigma sites in guinea pig membrane using [3H]DTG as the radioligand
[2] = target: Sigma non-opioid intracellular receptor 1 (Cavia porcellus); experiment: Binding affinity against sigma sites in guinea pig membrane using [3H](+)-3-PPP as the radioligand

## Clc1ccc(OCCN2C3CCC2c2c([nH]c4ccccc24)C3)cc1 (configuration not stated) [1-(4-chlorophenoxy)-2-[9,15-diazatetracyclo[10.2.1.02,10.03,8]pentadeca-2(10),3,5,7-tetraen-15-yl]ethane]
[1]
  IC50: 0.251 µM
[2]
  IC50: 4.88 µM

## c1ccc(OCCN2C3CCC2c2c([nH]c4ccccc24)C3)cc1 (configuration not stated) [1-[9,15-diazatetracyclo[10.2.1.02,10.03,8]pentadeca-2(10),3,5,7-tetraen-15-yl]-2-phenoxyethane]
[1]
  IC50: 0.11 µM
[2]
  IC50: 0.534 µM

## c1ccc(OCCCN2C3CCC2c2c([nH]c4ccccc24)C3)cc1 (configuration not stated) [1-[9,15-diazatetracyclo[10.2.1.02,10.03,8]pentadeca-2(10),3,5,7-tetraen-15-yl]-3-phenoxypropane]
[1]
  IC50: 0.132 µM
[2]
  IC50: 0.262 µM

## c1csc(CCCCN2C3CCC2c2c([nH]c4ccccc24)C3)c1 (configuration not stated) [1-[9,15-diazatetracyclo[10.2.1.02,10.03,8]pentadeca-2(10),3,5,7-tetraen-15-yl]-4-(2-thienyl)butane]
[1]
  IC50: 0.021 µM
[2]
  IC50: 0.098 µM

## c1ccc(OCCCCN2C3CCC2c2c([nH]c4ccccc24)C3)cc1 (configuration not stated) [1-[9,15-diazatetracyclo[10.2.1.02,10.03,8]pentadeca-2(10),3,5,7-tetraen-15-yl]-4-phenoxybutane]
[1]
  IC50: 0.088 µM
[2]
  IC50: 0.205 µM

## c1ccc(CCCCCN2C3CCC2c2c([nH]c4ccccc24)C3)cc1 (configuration not stated) [1-[9,15-diazatetracyclo[10.2.1.02,10.03,8]pentadeca-2(10),3,5,7-tetraen-15-yl]-5-phenylpentane]
[1]
  IC50: 0.107 µM
[2]
  IC50: 0.348 µM

## c1ccc(CCCCN2C3CCC2c2c(n(Cc4ccccc4)c4ccccc24)C3)cc1 (configuration not stated) [1-[9-benzyl-9,15-diazatetracyclo[10.2.1.02,10.03,8]pentadeca-2(10),3,5,7-tetraen-15-yl]-4-phenylbutane]
[1]
  IC50: 0.267 µM
[2]
  IC50: 0.396 µM

## CC(C)n1c2c(c3ccccc31)C1CCC(C2)N1CCCCc1ccccc1 (configuration not stated) [1-[9-isopropyl-9,15-diazatetracyclo[10.2.1.02,10.03,8]pentadeca-2(10),3,5,7-tetraen-15-yl]-4-phenylbutane]
[1]
  IC50: 0.231 µM
[2]
  IC50: 0.705 µM

## O=C1c2ccccc2C(=O)N1CCCN1C2CCC1c1c([nH]c3ccc(F)cc13)C2 (configuration not stated) [2-{3-[5-fluoro-9,15-diazatetracyclo[10.2.1.02,10.03,8]pentadeca-2(10),3,5,7-tetraen-15-yl]propyl}-1,3-isoindolinedione]
[1]
  IC50: 0.836 µM
[2]
  IC50: 3.33 µM

## OCCCN1C2CCC1c1c([nH]c3ccc(F)cc13)C2 (configuration not stated) [3-[5-fluoro-9,15-diazatetracyclo[10.2.1.02,10.03,8]pentadeca-2(10),3,5,7-tetraen-15-yl]-1-propanol]
[1]
  IC50: 0.317 µM
[2]
  IC50: 1.38 µM

## Fc1ccc2[nH]c3c(c2c1)C1CCC(C3)N1Cc1ccccc1 (configuration not stated) [15-benzyl-5-fluoro-9,15-diazatetracyclo[10.2.1.02,10.03,8]pentadeca-2(10),3,5,7-tetraene]
[1]
  IC50: 0.086 µM
[2]
  IC50: 0.908 µM
